We go through two compounds from patent US11365183B2, “Eicosanoid derivatives” (MAX-DELBRUECK-CENTRUM FUER MOLEKULARE MEDIZIN, priority 2009, dated 2022).

Data set [1] relates to neonatal rat cardiomyocytes (NRCMs). The experiment in a line: Response of NRCMs to increased extracellular Ca2+ and ß-adrenergic stimulation. To be noted: 30 nM added 5 min before. In kind it is cell-based. On the procedure:
Compound C11 was synthesized as described above (example 11). NRCMs were isolated and cultured as in Example 19. The basal Ca^2+-concentration of the medium was 1.2 mM. Increased extracellular Ca^2+-concentrations (2.2, 5.2 and 8.2 mM) were adjusted by adding appropriate amounts of a 1 M CaCl2 solution to the cultures. Isoproterenol (from Sigma-Aldrich) was used as ß-adrenoreceptor agonist and added to the cultures to give final concentrations of 0.1, 1 or 10 μM. C11 was used at a final concentration of 30 nM and added to the cultures 5 min before changing the Ca^2+-concentration or adding isoproterenol. Controls were performed in the absence of C11.

For data set [2] the test system is unchanged. The data set is described as follows: Chronotropic effect on spontaneous beating rate of cultured neonatal rat cardiomyocytes (identification of agonists). In kind it is cell-based. Conditions: 30 nM, incubation time 5 min; for agonistic / chronotropic effect on NRCMs, in words: compound alone. An excerpt: This negative chronotropic effect reflects the capacity of the analogs to interact with and to activate a G-protein coupled receptor or other primary cellular targets that reduce the contractility of cardiomyocytes under basal and stress-induced conditions.
The compounds included EPA and 17,18-EETeTr (compounds 01 and 02; purchased from Cayman Chemical) as well as all but one (compound 16) of the analogs synthesized as described in examples 1-24. The R,S— and S,R-enantiomers of 17,18-EETeTr (compounds 03 and 04) were prepared resolving the racemic mixture (compound 02) by means of chiral-phase HPLC as described previously (Barbosa-Sicard E, Markovic M, Honeck H, Christ B, Muller D N, Schunck W H. Biochem Biophys Res Commun. 2005 Apr. 22; 329(4):1275-81). Before use, the compounds to be tested were prepared as 1000-fold stock solutions in ethanol.
Isolation and cultivation of NRCMs were performed as described previously (Wallukat, G; Wollenberger, A. Biomed Biochim Acta. 1987; 78:634-639; Wallukat G, Homuth V, Fischer T, Lindschau C, Horstkamp B, Jupner A, Baur E, Nissen E, Vetter K, Neichel D, Dudenhausen J W, Haller H, Luft F C. J Clin Invest. 1999; 103: 945-952). Briefly, neonatal Wistar rats (1-2 days old) were killed in conformity to the recommendations of the Community of Health Service of the City of Berlin and the cardiomyocytes were dissociated from the minced ventricles with a 0.2% solution of crude trypsin. The isolated cells were then cultured as monolayers on the bottom (12.5 cm^2) of Falcon flasks in 2.5 ml of Halle S M 20-I medium equilibrated with humidified air. The medium contained 10% heat-inactivated FCS and 2 μmol/l fluoro-deoxyuridine (Serva, Heidelberg, Germany), the latter to prevent proliferation of non-muscle cells. The NRCMs (2.4×10^6 cells/flask) were cultured at 37° C. in an incubator. After 5 to 7 days, the NRCMs formed spontaneously beating cell clusters. […] On the day of the experiment, the culture medium was replaced by 2.0 ml fresh serum-containing medium. Two hours later, the beating rates were monitored at 37° C. using an inverted microscope equipped with a heating stage. To determine the basal rate, 6 to 8 individual clusters were selected and the number of contractions was counted for 15 sec. After that, the compound to be tested was added to the culture and the beating rate of the same clusters was monitored 5 min later again. Based on the difference between the basal and compound-induced beating rate of the individual clusters, the chronotropic effects (Δ beats/min) were calculated and are given as mean±SE values. N refers to the number of clusters monitored which originated, in general, from at least three independent NRCM cultures.
This effect was fully expressed using an EPA concentration of 3.3 μM and an incubation time of 30 min. In contrast, 17,18-EETeTr (C02) produced the same effect almost immediately and already in the low nanomolar range (EC50 of 1-2 nM, data not shown). To compare the activity of 17,18-EETeTr with that of its synthetic analogs, all these compounds were tested at a final concentration of 30 nM and using an incubation time of 5 min.

Data set [3] relates to rat model of myocardial infarction. The experiment in a line: Anti-arrhythmic effect in rat model of myocardial infarction (LAD ligation). In kind it is in vivo. To be noted: male Wistar rats. How it is done:
Study design: To gain insight into the in-vivo effects of synthetic 17,18-EETeTr-agonists, myocardial infarction studies were performed in male Wistar rats. Briefly, rats weighing 220-250 g were randomized to receive an i.v. bolus of compound C17 (100 μg in 300 μl 0.9% NaCl) or only 300 μl 0.9% NaCl as vehicle control two hours before induction of myocardial infarction. For safe bolus application, animals were mildly anesthetized using isoflorane. Two hours after bolus application, animals were re-anesthetized with a mixture of ketamine and xylazine (i.v.). Continuous monitoring of the surface-ECG was started (EPTracer, Netherlands) and maintained until the end of the study. After recording of the basal ECG, myocardial infarction was induced by ligation of the left anterior descending artery (LAD). One hour after myocardial infarction animals were sacrificed and organ harvested. Samples from urine, blood, liver, kidney and heart were stored for further analysis.
Method of arrhythmia analysis: Ventricular tachycardia burden was calculated as the sum of all arrhythmic events originating from the ventricular myocardium, which were observed within the first hour after induction of myocardial infarction. In order to quantify not only the frequency but also the severity of the ventricular arrhythmias, an arrhythmia-severity-score was calculated. This score was calculated as the sum of the number of different arrhythmia events (PVC, couplet, triplet, VT<1.5 sec, VT>=1.5 sec), each class factorized by an increasing severity index of 1-5 (e.g. PVC×1, couplets×2, . . . , VT>=1.5 sec×5).

`CCNC(=O)NCCCC/C=C\CCCCCCCCCC(=O)O` [Compound C11, 16-(3-Ethylureido)hexadec-11(Z)-enoic Acid] returned a melting point of 83.1 to 83.3 °C. The “beating rate of NRCMs at basal and increased extracellular Ca2+” value in data set [1] (1.2 mM Ca2+ and up to 8.2 mM) is listed as “significantly reduced”. For the same compound, the “response of NRCMs to increasing concentrations of isoproterenol” value in data set [1] (isoproterenol 0.1, 1 or 10 μM) is “reduced the response”. Further, the “chronotropic effect (Δ beats/min), mean±SE” value in data set [2] (NRCM clusters) is −27.0±1.2 beats/min. Besides, the “agonistic / chronotropic effect on NRCMs, in words” value in data set [2] is “Agonists”.
As to `CCNC(=O)NCCCC/C=C\CCCCCCCCCC(=O)NCC(=O)[O-].[Na+]` [Compound C17, Sodium (Z)-2-(16-(3-Ethylureido)hexadec-11-enamido)acetate], the “side effects of bolus injection” value in data set [3] (i.v. bolus 100 μg) is on record as “did not induce any obvious negative side effects”. This compound also yielded a ventricular tachycardia burden in data set [3] (i.v. bolus 100 μg two hours before LAD ligation, first hour after infarction, n=5) of 7526.2±5664.3 ms/h. The arrhythmia severity score in data set [3] (i.v. bolus 100 μg two hours before LAD ligation, n=5) was 125±25 arbitrary units. Moreover, the “agonistic / chronotropic effect on NRCMs, in words” value in data set [2] is on record as “Agonists”.
